Results: PubChem BioAssay AID1745844 (Carcinogenic Potency Database (CPDB), 2022)
Where “and” joins values, the source holds several entries; their conditions need not be identical. Equal entries are not always repeated. Calls of active or inactive are those of the source. The rule behind the calls is not given here.

Test system: rodent lifetime carcinogenesis bioassay, tumor incidence TD50
Experiment: carcinogenic potency in animals, long-term in vivo studies, CPDB compilation (AID 1745844)

O=c1c(O)c(-c2ccc(O)c(O)c2)oc2cc(O)cc(O)c12
active: TD50 (rat, strain Fischer 344, males, in feed, site: kidney, lesion: tubule adenoma, dosed 103 weeks, study length 103 weeks) 12500 mg/kg/day and 6030 mg/kg/day | TD50 (rat, strain Norwegian albino, females, in feed, site: ileum, lesion: several types, types named in the paper, dosed 58 weeks, study length 58 weeks) 5.12 mg/kg/day | TD50 (rat, strain Norwegian albino, females, in feed, site: urinary bladder, lesion: several types, types named in the paper, dosed 58 weeks, study length 58 weeks) 51.3 mg/kg/day | carcinogen call (rat, strain Norwegian albino, males, in feed, site: ileum, lesion: several types, types named in the paper, dosed 58 weeks, study length 58 weeks) positive | TD50 (rat, strain Norwegian albino, males, in feed, site: urinary bladder, lesion: transitional-cell carcinoma, dosed 58 weeks, study length 58 weeks) 21 mg/kg/day
75700 mg/kg/day: TD50 (rat, strain Fischer 344, females, in feed, site: liver, lesion: hepatocellular adenoma + hepatocellular carcinoma + neoplastic nodule, dosed 103 weeks, study length 103 weeks)
8990 mg/kg/day and 5250 mg/kg/day: TD50 (rat, strain Fischer 344, males, in feed, site: kidney, lesion: tubule adenoma + tubular-cell adenocarcinoma, dosed 103 weeks, study length 103 weeks)
inactive: carcinogen call (hamster, strain Syrian Golden, females, in feed, site: forestomach, lesion: papilloma, dosed 50 weeks, study length 100 weeks) negative | TD50 (hamster, strain Syrian Golden, females, in feed, site: forestomach, lesion: papilloma, dosed 101 weeks, study length 101 weeks) 18900 mg/kg/day | carcinogen call (hamster, strain Syrian Golden, females, in feed, site: forestomach, lesion: papilloma, dosed 104 weeks, study length 104 weeks) negative | TD50 (hamster, strain Syrian Golden, females, in feed, site: ileum, lesion: adenocarcinoma, dosed 104 weeks, study length 104 weeks) 140000 mg/kg/day | TD50 (hamster, strain Syrian Golden, females, in feed, site: uterus, lesion: leiomyoma, dosed 101 weeks, study length 101 weeks) 39200 mg/kg/day | carcinogen call (hamster, strain Syrian Golden, males, in feed, site: adrenal gland, lesion: cortical adenoma, dosed 101 weeks, study length 101 weeks) negative | carcinogen call (hamster, strain Syrian Golden, males, in feed, site: adrenal gland, lesion: cortical adenoma, dosed 104 weeks, study length 104 weeks) negative | TD50 (hamster, strain Syrian Golden, males, in feed, site: forestomach, lesion: papilloma, dosed 50 weeks, study length 100 weeks) 1440 mg/kg/day | carcinogen call (hamster, strain Syrian Golden, males, in feed, site: forestomach, lesion: papilloma, dosed 101 weeks, study length 101 weeks) negative | TD50 (hamster, strain Syrian Golden, males, in feed, site: forestomach, lesion: papilloma, dosed 104 weeks, study length 104 weeks) 56700 mg/kg/day | carcinogen call (mouse, strain DDY, females, in feed, site: liver, lesion: one or several types, types not named, dosed 120 weeks, study length 120 weeks) negative | TD50 (mouse, strain DDY, females, in feed, site: lung, lesion: several types, types named in the paper, dosed 120 weeks, study length 120 weeks) 4240 mg/kg/day | TD50 (mouse, strain DDY, males, in feed, site: heart, lesion: spindle-cell sarcoma, dosed 115 weeks, study length 115 weeks) 73400 mg/kg/day | TD50 (mouse, strain DDY, males, in feed, site: liver, lesion: several types, types named in the paper, dosed 115 weeks, study length 115 weeks) 15100 mg/kg/day | TD50 (mouse, strain DDY, males, in feed, site: lung, lesion: several types, types named in the paper, dosed 115 weeks, study length 115 weeks) 5460 mg/kg/day | carcinogen call (rat, strain ACI, females, in feed, site: adrenal gland, lesion: cortical adenoma, dosed 77 weeks, study length 77 weeks) negative | TD50 (rat, strain ACI, females, in feed, site: adrenal gland, lesion: cortical adenoma, dosed 121 weeks, study length 121 weeks) 226000 mg/kg/day | carcinogen call (rat, strain ACI, females, in feed, site: pituitary gland, lesion: adenoma, dosed 77 weeks, study length 77 weeks) negative | TD50 (rat, strain ACI, females, in feed, site: pituitary gland, lesion: adenoma, dosed 121 weeks, study length 121 weeks) 461000 mg/kg/day | TD50 (rat, strain ACI, females, in feed, site: thigh, lesion: sarcoma, dosed 121 weeks, study length 121 weeks) 90400 mg/kg/day | TD50 (rat, strain ACI, males, in feed, site: adrenal gland, lesion: pheochromocytoma, dosed 77 weeks, study length 77 weeks) 7130 mg/kg/day | TD50 (rat, strain ACI, males, in feed, site: cecum, lesion: adenocarcinoma, dosed 121 weeks, study length 121 weeks) 35200 mg/kg/day | TD50 (rat, strain ACI, males, in feed, site: cecum, lesion: adenoma, dosed 77 weeks, study length 77 weeks) 7130 mg/kg/day | TD50 (rat, strain ACI, males, in feed, site: cecum, lesion: adenoma, dosed 121 weeks, study length 121 weeks) 72300 mg/kg/day | TD50 (rat, strain ACI, males, in feed, site: pancreas, lesion: exocrine adenoma, dosed 121 weeks, study length 121 weeks) 72300 mg/kg/day | TD50 (rat, strain ACI, males, in feed, site: testis, lesion: interstitial-cell tumor, dosed 77 weeks, study length 77 weeks) 2290 mg/kg/day | TD50 (rat, strain F344/DuCrj, females, in feed, site: all sites, lesion: lymphoma and leukemia, combined, dosed 104 weeks, study length 112 weeks) 7860 mg/kg/day | carcinogen call (rat, strain F344/DuCrj, females, in feed, site: liver, lesion: hyperplastic nodule, dosed 104 weeks, study length 112 weeks) negative | TD50 (rat, strain F344/DuCrj, females, in feed, site: uterus, lesion: endometrial stromal polyp, dosed 104 weeks, study length 112 weeks) 19300 mg/kg/day | TD50 (rat, strain F344/DuCrj, males, in feed, site: all sites, lesion: lymphoma and leukemia, combined, dosed 104 weeks, study length 112 weeks) 1160 mg/kg/day | TD50 (rat, strain F344/DuCrj, males, in feed, site: liver, lesion: hyperplastic nodule, dosed 104 weeks, study length 112 weeks) 66800 mg/kg/day | TD50 (rat, strain Fischer 344, females, in feed, site: adrenal gland, lesion: cortical adenoma, dosed 77 weeks, study length 77 weeks) 118 mg/kg/day | carcinogen call (rat, strain Fischer 344, females, in feed, site: any site (literature study), lesion: several types, types named in the paper, dosed 64 weeks, study length 64 weeks) negative | TD50 (rat, strain Fischer 344, females, in feed, site: tongue, lesion: squamous-cell carcinoma, dosed 103 weeks, study length 103 weeks) 36500 mg/kg/day | carcinogen call (rat, strain Fischer 344, males, in feed, site: any site (literature study), lesion: several types, types named in the paper, dosed 64 weeks, study length 64 weeks) negative | carcinogen call (rat, strain Fischer 344, males, in feed, site: any site (literature study), lesion: several types, types named in the paper, dosed 77 weeks, study length 77 weeks) negative
15.4 mg/kg/day: TD50 (rat, strain Norwegian albino, females, in feed, site: ileum, lesion: adenocarcinoma, dosed 58 weeks, study length 58 weeks)

CC(O)CN(CCO)N=O (stereo unspecified)
active: TD50 (rat, strain Fischer 344, females, in drinking water, site: esophagus, lesion: several types, types named in the paper, dosed 50 weeks, study length 75 weeks) 6.74 mg/kg/day | TD50 (rat, strain Fischer 344, females, in drinking water, site: liver, lesion: angiosarcoma, dosed 50 weeks, study length 75 weeks) 4.5 mg/kg/day | TD50 (rat, strain Fischer 344, females, in drinking water, site: liver, lesion: hepatocellular carcinoma, dosed 50 weeks, study length 75 weeks) 1.02 mg/kg/day | TD50 (rat, strain Fischer 344, females, in drinking water, site: liver, lesion: several types, types named in the paper, dosed 50 weeks, study length 75 weeks) 1.12 mg/kg/day
5.44 mg/kg/day: TD50 (rat, strain Fischer 344, females, in drinking water, site: nasal cavity, lesion: olfactory carcinoma, dosed 50 weeks, study length 75 weeks)

Cc1ccc(Cl)cc1N
7480 mg/kg/day: TD50 (mouse, strain B6C3F1, females, in feed, site: lung, lesion: alveolar/bronchiolar adenoma + alveolar/bronchiolar carcinoma, dosed 78 weeks, study length 91 weeks)
1020 mg/kg/day: TD50 (rat, strain Fischer 344, males, in feed, site: any site (literature study), lesion: several types, types named in the paper, dosed 78 weeks, study length 103 weeks)
180 mg/kg/day: TD50 (mouse, strain B6C3F1, females, in feed, site: liver, lesion: hepatocellular adenoma + hepatocellular carcinoma + neoplastic nodule, dosed 78 weeks, study length 91 weeks)
164 mg/kg/day: TD50 (mouse, strain B6C3F1, females, in feed, site: any site (literature study), lesion: several types, types named in the paper, dosed 78 weeks, study length 91 weeks)
3340 mg/kg/day: TD50 (rat, strain Fischer 344, males, in feed, site: liver, lesion: hepatocellular adenoma + hepatocellular carcinoma + neoplastic nodule, dosed 78 weeks, study length 103 weeks)
143 mg/kg/day: TD50 (mouse, strain B6C3F1, females, in feed, site: all sites + liver, lesion: hemangiosarcoma + hepatocellular adenoma + hepatocellular carcinoma, dosed 78 weeks, study length 91 weeks)
134 mg/kg/day: TD50 (mouse, strain B6C3F1, males, in feed, site: all sites + liver, lesion: hemangiosarcoma + hepatocellular adenoma + hepatocellular carcinoma, dosed 78 weeks, study length 91 weeks)
249 mg/kg/day: TD50 (mouse, strain B6C3F1, males, in feed, site: liver, lesion: hepatocellular adenoma + hepatocellular carcinoma + neoplastic nodule, dosed 78 weeks, study length 91 weeks)
132 mg/kg/day: TD50 (mouse, strain B6C3F1, males, in feed, site: any site (literature study), lesion: several types, types named in the paper, dosed 78 weeks, study length 91 weeks)
active: TD50 (mouse, strain B6C3F1, females, in feed, site: all sites, lesion: hemangiosarcoma, dosed 78 weeks, study length 91 weeks) 373 mg/kg/day | TD50 (mouse, strain B6C3F1, females, in feed, site: liver, lesion: hepatocellular adenoma + hepatocellular carcinoma, dosed 78 weeks, study length 91 weeks) 180 mg/kg/day | TD50 (mouse, strain B6C3F1, females, in feed, site: liver, lesion: hepatocellular carcinoma, dosed 78 weeks, study length 91 weeks) 217 mg/kg/day | TD50 (mouse, strain B6C3F1, males, in feed, site: all sites, lesion: hemangiosarcoma, dosed 78 weeks, study length 91 weeks) 213 mg/kg/day | TD50 (mouse, strain B6C3F1, males, in feed, site: liver, lesion: hepatocellular adenoma + hepatocellular carcinoma, dosed 78 weeks, study length 91 weeks) 249 mg/kg/day | TD50 (mouse, strain B6C3F1, males, in feed, site: liver, lesion: hepatocellular carcinoma, dosed 78 weeks, study length 91 weeks) 271 mg/kg/day
inactive: carcinogen call (rat, strain Fischer 344, females, in feed, site: any site (literature study), lesion: several types, types named in the paper, dosed 78 weeks, study length 103 weeks) negative | TD50 (rat, strain Fischer 344, males, in feed, site: adrenal gland, lesion: pheochromocytoma, dosed 78 weeks, study length 103 weeks) 714 mg/kg/day
